In data set [1] the test system is M. tuberculosis H37Rv. The data set can be described thus: In vivo activity in a murine model of acute tuberculosis infection. Also on record: species or system BalbC mice. The conditions noted are these: 50 mg/kg orally, 4 weeks of treatment. As for the experimental part: The effect of compounds 177 and 185 on the bacterial load of TB-infected mice was compared to that of the reference compound Isoniazid (INH). 8-week old female BalbC mice were infected with 6×10^5 M. tuberculosis H37Rv via intranasal instillation. Mice were sacrificed at day 1 to control the number of CFU in the lungs. In the acute model of infection, mice were treated for 4 weeks, starting at day 1. Compounds were freshly dissolved in a 0.5% methylcellulose solution and administered by oral gavage 5 times/week. Bacterial load was assessed in lungs and spleen after homogenizing the organs in 1×PBS. Serial dilutions of organs homogenates were spread on Middlebrook 7H11 plates and CFU were determined after 3 weeks incubation at 37° C. under 5% CO2.

Data set [2] relates to M. tuberculosis inside the host macrophage. The data set can be described thus: QIM: Quantification of Intracellular Mycobacteria (intracellular growth assay, phenotypic cell-based). The conditions noted are these: Mycobacterium tuberculosis; MIC, 80% bacterial growth inhibition; intracellular growth; read-out: QIM. A digest of the protocol: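 Phenotypic high-content assay measuring M. tuberculosis multiplication inside host macrophages, run as dose response. MIC is the minimum compound concentration giving 80% bacterial growth inhibition.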

For data set [3], the system named is in vitro grown Mycobacteria (M. tuberculosis). The data set can be described thus: QUM: Quantification of in vitro grown Mycobacteria (in vitro growth fluorescence assay). It counts as cell-based. Particulars: Mycobacterium tuberculosis; MIC, 80% bacterial growth inhibition; in vitro growth; read-out: QUM. Put shortly:
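Mycobacterium tuberculosis grown in vitro was quantified by fluorescence across compound dose responses. MIC is defined as the minimum concentration producing 80% growth inhibition.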

Structures can show the parent of a compound that is named as a salt.

As to `CCc1nc2cc(Cl)ccn2c1C(=O)NCc1ccc(N2CCN(c3ccc(F)cc3)CC2)cc1` [Compound 177, 7-Chloro-2-ethyl-N-(4-(4-(4-fluorophenyl)piperazin-1-yl)benzyl)imidazo[1,2-a]pyridine-3-carboxamide trihydrochloride], in data set [1], the “CFU in the spleen” value is “No CFU were detected” and the “reduction of CFU in the lungs compared to untreated mice” value is given as about 2 log CFU.

A word on the melting point: it is the temperature, or range, at which the solid turns liquid. `CCc1nc2cc(Cl)ccn2c1C(=O)NCc1ccc(N2C=CC(=O)CC2)cc1` [Compound 270, 7-Chloro-2-ethyl-N-(4-(4-oxo-3,4-dihydropyridin-1(2H)-yl)benzyl)imidazo[1,2-a]pyridine-3-carboxamide]: the melting point fell in the range of 201.3 to 202.8 °C. In data set [2], the MIC is over 20 µM. Besides, the MIC in data set [3] is over 20 µM.

As to `CCc1nc2cc(Cl)ccn2c1C(=O)NCc1ccc(N2CCCCC2C)cc1` (centres unmarked) [Compound 273, 7-chloro-2-ethyl-N-(4-(2-methylpiperidin-1-yl)benzyl)imidazo[1,2-a]pyridine-3-carboxamide], the melting point is 117.9 °C. The MIC in data set [2] was under 1 µM. Also, the MIC in data set [3] was under 1 µM.

Turning to `CCc1nc2ccc(Cl)cn2c1C(=O)NCc1ccc(N2CCC(COC)CC2)cc1` [Compound 281, 6-Chloro-2-ethyl-N-(4-(4-(methoxymethyl)piperidin-1-yl)benzyl)imidazo[1,2-a]pyridine-3-carboxamide], the melting point came out at 162.1 °C. In data set [2], the MIC was under 1 µM. In addition, the MIC in data set [3] was under 1 µM.

For `CCc1nc2cc(Cl)ccn2c1C(=O)NCc1ccc(N2CCC(COC)CC2)cc1` [Compound 282, 7-Chloro-2-ethyl-N-(4-(4-(methoxymethyl)piperidin-1-yl)benzyl)imidazo[1,2-a]pyridine-3-carboxamide], the melting point amounted to 172.5 °C. For the same compound, the MIC in data set [2] was under 1 µM. Also, in data set [3], the MIC is under 1 µM.

In the case of `CCc1nc2ccc(Cl)cn2c1C(=O)NCc1ccc(N2CCC(c3ccc(F)cc3)CC2)cc1` [Compound 286, 6-Chloro-2-ethyl-N-(4-(4-(4-fluorophenyl)piperidin-1-yl)benzyl)imidazo[1,2-a]pyridine-3-carboxamide], the melting point stood at 164 °C. Besides, the MIC in data set [2] is under 1 µM. For the same compound, the MIC in data set [3] was under 1 µM.

Compound `CCc1nc2cc(Cl)ccn2c1C(=O)NCc1ccc(N2CCC(c3ccc(F)cc3)CC2)cc1` [Compound 287, 7-Chloro-2-ethyl-N-(4-(4-(4-fluorophenyl)piperidin-1-yl)benzyl)imidazo[1,2-a]pyridine-3-carboxamide] showed a melting point of 182.7 °C. Moreover, the MIC in data set [2] was under 1 µM. Moreover, the MIC in data set [3] was under 1 µM.

In the case of `CCc1nc2ccccn2c1C(=O)NCc1ccc(N2CCC(COc3ccc(F)cc3)CC2)cc1` [Compound 295, 2-Ethyl-N-(4-(4-((4-fluorophenoxy)methyl)piperidin-1-yl)benzyl)imidazo[1,2-a]pyridine-3-carboxamide], the melting point came to 144.2 °C. In data set [2], the MIC is under 1 µM. In addition, the MIC in data set [3] was under 1 µM.

Regarding `CCc1nc2ccc(Cl)cn2c1C(=O)NCc1ccc(N2CCC(COc3ccc(F)cc3)CC2)cc1` [Compound 296, 6-Chloro-2-ethyl-N-(4-(4-((4-fluorophenoxy)methyl)piperidin-1-yl)benzyl)imidazo[1,2-a]pyridine-3-carboxamide], the melting point is 171 °C. In addition, the MIC in data set [2] was under 1 µM. Further, the MIC in data set [3] was under 1 µM.

`CCc1nc2cc(Cl)ccn2c1C(=O)NCc1ccc(N2CCC(COc3ccc(F)cc3)CC2)cc1` [Compound 297, 7-Chloro-2-ethyl-N-(4-(4-((4-fluorophenoxy)methyl)piperidin-1-yl)benzyl)imidazo[1,2-a]pyridine-3-carboxamide] showed a melting point of 186.5 °C. The MIC in data set [2] is under 1 µM. Also, the MIC in data set [3] was under 1 µM.

`CCc1nc2ccccn2c1C(=O)NCc1ccc(N2CCN(c3ccc(F)cc3)CC2)cc1` [Compound 303, 2-Ethyl-N-(4-(4-(4-fluorophenyl)piperazin-1-yl)benzyl)imidazo[1,2-a]pyridine-3-carboxamide] showed a melting point of 189.2 °C. Further, in data set [2], the MIC was under 1 µM. In addition, in data set [3], the MIC is under 1 µM.

The compound `CCc1nc2ccc(F)cn2c1C(=O)NCc1ccc(N2CCN(c3ccc(F)cc3)CC2)cc1` [Compound 306, 2-Ethyl-6-fluoro-N-(4-(4-(4-fluorophenyl)piperazin-1-yl)benzyl)imidazo[1,2-a]pyridine-3-carboxamide] came in with a melting point of 200.9 °C. In addition, the MIC in data set [2] was under 1 µM. Moreover, the MIC in data set [3] is under 1 µM.

Take `CCc1nc2ccc(Br)cn2c1C(=O)NCc1ccc(N2CCN(c3ccc(F)cc3)CC2)cc1` [Compound 307, 6-Bromo-2-ethyl-N-(4-(4-(4-fluorophenyl)piperazin-1-yl)benzyl)imidazo[1,2-a]pyridine-3-carboxamide]: the melting point turned out to be 218.1 °C. Besides, the MIC in data set [2] was under 1 µM. Moreover, in data set [3], the MIC was under 1 µM.

The compound `CCc1nc2cc(C)ccn2c1C(=O)NCc1ccc(N2CCN(c3ccc(F)cc3)CC2)cc1` [Compound 309, 2-Ethyl-N-(4-(4-(4-fluorophenyl)piperazin-1-yl)benzyl)-7-methylimidazo[1,2-a]pyridine-3-carboxamide] gave a melting point of 203.7 °C. The MIC in data set [2] was under 1 µM. Moreover, the MIC in data set [3] was under 1 µM.

On to `CCc1nc2c(F)cccn2c1C(=O)NCc1ccc(N2CCN(c3ccc(F)cc3)CC2)cc1` [Compound 310, 2-Ethyl-8-fluoro-N-(4-(4-(4-fluorophenyl)piperazin-1-yl)benzyl)imidazo[1,2-a]pyridine-3-carboxamide], for which the melting point came to 204.1 °C. Also, the MIC in data set [2] was under 1 µM. In data set [3], the MIC is under 1 µM.

Compound `CCc1nc2cc(Br)ccn2c1C(=O)NCc1ccc(N2CCN(c3ccc(F)cc3)CC2)cc1` [Compound 311, 7-Bromo-2-ethyl-N-(4-(4-(4-fluorophenyl)piperazin-1-yl)benzyl)imidazo[1,2-a]pyridine-3-carboxamide] had a melting point of 214.6 °C. Besides, in data set [2], the MIC is under 1 µM. Also, the MIC in data set [3] is under 1 µM.

Compound `CCc1nc2ccc(Br)cn2c1C(=O)NCc1ccc(N2CCOCC2)cc1` [Compound 315, 6-Bromo-2-ethyl-N-(4-morpholinobenzyl)imidazo[1,2-a]pyridine-3-carboxamide] showed a melting point of 228.2 °C. Besides, in data set [2], the MIC is under 1 µM. The MIC in data set [3] is under 1 µM.

As to `CCc1nc2c(F)cccn2c1C(=O)NCc1ccc(N2CCOCC2)cc1` [Compound 317, 2-Ethyl-8-fluoro-N-(4-morpholinobenzyl)imidazo[1,2-a]pyridine-3-carboxamide], the melting point worked out at 197.3 °C. In addition, in data set [2], the MIC is under 1 µM. Moreover, in data set [3], the MIC was under 1 µM.

On to `CCc1nc2cc(Br)ccn2c1C(=O)NCc1ccc(N2CCOCC2)cc1` [Compound 324, 7-Bromo-2-ethyl-N-(4-morpholinobenzyl)imidazo[1,2-a]pyridine-3-carboxamide], for which the melting point is 202.6 °C. For the same compound, the MIC in data set [2] was under 1 µM. Besides, the MIC in data set [3] is under 1 µM.

Compound `CCc1nc2cc(-c3ccncc3)ccn2c1C(=O)NCc1ccc(N2CCOCC2)cc1` [Compound 325, 2-Ethyl-N-(4-morpholinobenzyl)-7-(pyridin-4-yl)imidazo[1,2-a]pyridine-3-carboxamide] yielded a melting point of 210.1 °C. Further, in data set [2], the MIC is over 20 µM. Besides, in data set [3], the MIC is over 20 µM.

With `CCc1nc2cc(-c3cccnc3)ccn2c1C(=O)NCc1ccc(N2CCOCC2)cc1` [Compound 326, 2-Ethyl-N-(4-morpholinobenzyl)-7-(pyridin-3-yl)imidazo[1,2-a]pyridine-3-carboxamide], the melting point was 208.5 °C. The MIC in data set [2] was over 20 µM. Also, the MIC in data set [3] was over 20 µM.

For the compound `CCc1nc2cc(N3CCN(C)CC3)ccn2c1C(=O)NCc1ccc(N2CCOCC2)cc1` [Compound 328, 2-Ethyl-7-(4-methylpiperazin-1-yl)-N-(4-morpholinobenzyl)imidazo[1,2-a]pyridine-3-carboxamide], the melting point is 204.8 °C. Also, in data set [2], the MIC was over 20 µM. For the same compound, the MIC in data set [3] is over 20 µM.

In turn, `CCc1nc2cc(N3CCN(c4ccccc4)CC3)ccn2c1C(=O)NCc1ccc(C(F)(F)F)cc1` [Compound 330, 2-Ethyl-7-(4-phenylpiperazin-1-yl)-N-(4-(trifluoromethyl)benzyl)imidazo[1,2-a]pyridine-3-carboxamide] gave a melting point of 235.2 °C. The MIC in data set [2] is under 1 µM. Moreover, the MIC in data set [3] was over 20 µM.

On to `CCc1nc2cc(N3CCN(Cc4ccc(F)cc4)CC3)ccn2c1C(=O)NCc1ccc(N2CCOCC2)cc1` [Compound 331, 2-Ethyl-7-(4-(4-fluorobenzyl)piperazin-1-yl)-N-(4-morpholinobenzyl)imidazo[1,2-a]pyridine-3-carboxamide], for which the melting point was found to be 212.5 °C. In data set [2], the MIC was over 20 µM. In addition, the MIC in data set [3] was over 20 µM.

These data come from patent publication US8865734B2 (priority 2010, dated 2014).
